Values after ≈ are worked out from the molar mass of the structure shown.
Columns and labels:
Candida albicans [1] = assay: Antifungal activity against Candida albicans ATCC 90028 by twofold serial dilution technique; type: functional
Pseudomonas aeruginosa [2] = assay: Antibacterial activity against Pseudomonas aeruginosa ATCC 9027 at 10 ug/mL after 24 hrs by disc diffusion method; type: functional; conditions: ATCC 9027, 24 h, read-out: IZ
Salmonella typhi [3] = assay: Antibacterial activity against Salmonella typhi ATCC 6539 at 10 ug/mL after 24 hrs by disc diffusion method; type: functional, Salmonella enterica subsp. enterica serovar Typhi; conditions: Salmonella enterica, ATCC 6539, 24 h; read-out: IZ
Staphylococcus aureus [4] = assay: Antibacterial activity against Staphylococcus aureus ATCC 6538 by twofold serial dilution technique; type: functional
Aspergillus niger [5] = assay: Antifungal activity against Aspergillus niger ATCC 16404 at 10 ug/mL after 72 hrs by agar cup plate method; type: functional; conditions: ATCC 16404, 72 h, read-out: IZ
Salmonella typhi [6] = assay: Antibacterial activity against Salmonella typhi ATCC 6539 by twofold serial dilution technique; type: functional, Salmonella enterica subsp. enterica serovar Typhi; conditions: Salmonella enterica
Candida albicans [7] = assay: Antifungal activity against Candida albicans PYCC 3436 at 10 ug/mL after 72 hrs by agar cup plate method; type: functional; conditions: PYCC 3436, 72 h, read-out: IZ
Bacillus subtilis [8] = assay: Antibacterial activity against Bacillus subtilis ATCC 6631 at 10 ug/mL after 24 hrs by disc diffusion method; type: functional; conditions: ATCC 6631, 24 h, read-out: IZ
Bacillus subtilis [9] = assay: Antibacterial activity against Bacillus subtilis ATCC 6631 by twofold serial dilution technique; type: functional
Pseudomonas aeruginosa [10] = assay: Antibacterial activity against Pseudomonas aeruginosa ATCC 9027 by twofold serial dilution technique; type: functional
Aspergillus niger [11] = assay: Antifungal activity against Aspergillus niger ATCC 16404 by twofold serial dilution technique; type: functional
Aspergillus fumigatus [12] = assay: Antifungal activity against Aspergillus fumigatus ATCC 28212 by twofold serial dilution technique; type: functional
Escherichia coli [13] = assay: Antibacterial activity against Escherichia coli ATCC 35218 by twofold serial dilution technique; type: functional
Aspergillus fumigatus [14] = assay: Antifungal activity against Aspergillus fumigatus ATCC 28212 at 10 ug/mL after 72 hrs by agar cup plate method; type: functional; conditions: ATCC 28212, 72 h, read-out: IZ
[15] = system: Lysinibacillus sphaericus; assay: Antibacterial activity against Bacillus sphaericus ATCC 7031 by twofold serial dilution technique; type: functional
[16] = system: Lysinibacillus sphaericus; assay: Antibacterial activity against Bacillus sphaericus ATCC 7031 at 10 ug/mL after 24 hrs by disc diffusion method; type: functional; conditions: ATCC 7031, 24 h, read-out: IZ
Candida albicans [17] = assay: Antifungal activity against Candida albicans PYCC 3436 by twofold serial dilution technique; type: functional
Candida albicans [18] = assay: Antifungal activity against Candida albicans ATCC 90028 at 10 ug/mL after 72 hrs by agar cup plate method; type: functional; conditions: ATCC 90028, 72 h, read-out: IZ
Staphylococcus aureus [19] = assay: Antibacterial activity against Staphylococcus aureus ATCC 6538 at 10 ug/mL after 24 hrs by disc diffusion method; type: functional; conditions: ATCC 6538, 24 h, read-out: IZ
Escherichia coli [20] = assay: Antibacterial activity against Escherichia coli ATCC 35218 at 10 ug/mL after 24 hrs by disc diffusion method; type: functional; conditions: ATCC 35218, 24 h, read-out: IZ

| SMILES | MIC99 (Candida albicans [1]) [µg/mL] | zone of inhibition at 10 µg/mL (Pseudomonas aeruginosa [2]) [mm] | zone of inhibition at 10 µg/mL (Salmonella typhi [3]) [mm] | MIC99 (Staphylococcus aureus [4]) [µg/mL] | zone of inhibition at 10 µg/mL (Aspergillus niger [5]) [mm] | MIC99 (Salmonella typhi [6]) [µg/mL] | zone of inhibition at 10 µg/mL (Candida albicans [7]) [mm] | zone of inhibition at 10 µg/mL (Bacillus subtilis [8]) [mm] | MIC99 (Bacillus subtilis [9]) [µg/mL] | MIC99 (Pseudomonas aeruginosa [10]) [µg/mL] | MIC99 (Aspergillus niger [11]) [µg/mL] | MIC99 (Aspergillus fumigatus [12]) [µg/mL] | MIC99 (Escherichia coli [13]) [µg/mL] | zone of inhibition at 10 µg/mL (Aspergillus fumigatus [14]) [mm] | MIC99 [15] [µg/mL] | zone of inhibition at 10 µg/mL [16] [mm] | MIC99 (Candida albicans [17]) [µg/mL] | zone of inhibition at 10 µg/mL (Candida albicans [18]) [mm] | zone of inhibition at 10 µg/mL (Staphylococcus aureus [19]) [mm] | zone of inhibition at 10 µg/mL (Escherichia coli [20]) [mm] |
| --- | --- | --- | --- | --- | --- | --- | --- | --- | --- | --- | --- | --- | --- | --- | --- | --- | --- | --- | --- | --- |
| c1ccc(CN2C(c3ccccc3)C3=C(NOC3c3ccccc3)C3CCCCC32)cc1 (stereo not given) | > 100 | 3 | 3 | 100 (≈ 237 µM) | 4 | > 100 | 10 | 4 | 100 (≈ 237 µM) | 100 (≈ 237 µM) | > 100 | 100 (≈ 237 µM) | 100 (≈ 237 µM) | 2 | 100 (≈ 237 µM) | 11 | 50 (≈ 118 µM) | 7 | 10 | 4 |
| Clc1ccccc1C1ONC2=C1C(c1ccccc1)N(Cc1ccccc1)C1CCCCC21 (stereo not given) | 25 (≈ 54.7 µM) | 6 | 9 | 50 (≈ 109 µM) | 14 | > 100 | 16 | 5 | 50 (≈ 109 µM) | 25 (≈ 54.7 µM) | 100 (≈ 219 µM) | 25 (≈ 54.7 µM) | 25 (≈ 54.7 µM) | 5 | 50 (≈ 109 µM) | 13 | 25 (≈ 54.7 µM) | 22 | 12 | 7 |
| O=[N+]([O-])c1cccc(C2ONC3=C2C(c2ccccc2)N(Cc2ccccc2)C2CCCCC32)c1 (stereo not given) | 25 (≈ 53.5 µM) | 5 | 8 | 100 (≈ 214 µM) | 21 | > 100 | 16 | 6 | 50 (≈ 107 µM) | 25 (≈ 53.5 µM) | 100 (≈ 214 µM) | 12.5 (≈ 26.7 µM) | 50 (≈ 107 µM) | 5 | 100 (≈ 214 µM) | 9 | 25 (≈ 53.5 µM) | 24 | 8 | 5 |
| COc1ccc(C2ONC3=C2C(c2ccccc2)N(Cc2ccccc2)C2CCCCC32)cc1 (stereo not given) | 50 (≈ 110 µM) | 4 | 11 | 50 (≈ 110 µM) | 7 | 100 (≈ 221 µM) | 12 | 5 | 100 (≈ 221 µM) | 100 (≈ 221 µM) | > 100 | 100 (≈ 221 µM) | 25 (≈ 55.2 µM) | 3 | 100 (≈ 221 µM) | 7 | 50 (≈ 110 µM) | 14 | 14 | 6 |
| O=C(O)c1cn(C2CC2)c2cc(N3CCNCC3)c(F)cc2c1=O [CIPROFLOXACIN] |  | 8 | 39 | 25 (≈ 75.4 µM) |  | 50 (≈ 151 µM) |  | 9 | 25 (≈ 75.4 µM) | 12.5 (≈ 37.7 µM) |  |  | 18 (≈ 54.3 µM) |  | 20 (≈ 60.4 µM) | 24 |  |  | 17 | 9 |
| CC(=O)N1CCN(c2ccc(OCC3COC(Cn4ccnc4)(c4ccc(Cl)cc4Cl)O3)cc2)CC1 (stereo not given) [KETOCONAZOLE] | 25 (≈ 47 µM) |  |  |  | 25 |  | 22 |  |  |  | 50 (≈ 94.1 µM) | 7 (≈ 13.2 µM) |  | 10 |  |  | 7.8 (≈ 14.7 µM) | 22 |  |  |
